# Test results taken from PMC2010042, “Effects of pretreatment with phenobarbitone and phenytoin on the pharmacokinetics and toxicity of phenytoin on the pharmacokinetics and toxicity of misonidazole in mice” (British Journal of Cancer, 1979).
# Structures can show the parent of a compound that is named as a salt.
# Experiments:
# body temperature = conditions: 1 g/kg MIS; all 3 pretreated groups (saline, phenobarbitone, phenytoin)
# [1] = 1 g/kg; ref Brown et al., 1979; cited from earlier work
# [2] = preliminary studies in man
# man = conditions: ref Dische et al., 1977; Urtasun et al., 1978; cited from earlier work
# hypoxic tumour cells = system: hypoxic tumour cells; parameters: method as in Brown et al., 1979; conditions: at equal tumour concentrations; ref Brown et al., 1979; cited from earlier work
# in vivo = conditions: male, BALB/c, mouse, ip, LD50(7d) (95% confidence limits), MIS single i.p.
# [3] = Pharmacokinetics of MIS and Ro 05-9963 in plasma/blood, brain and tumour by HPLC after 1 g/kg MIS i.p.; conditions: for concentrations in whole blood compared with plasma: control studies
# BALB/c male mice = conditions: MIS single i.p. 1.117-2.5 g/kg
# [4] = parameters: method as in Adams et al., 1976; conditions: ref Adams et al., 1976; cited from earlier work
# [5] = Pharmacokinetics of MIS and Ro 05-9963 after 1 g/kg MIS i.p. in B10 mice bearing the MC6B tumour; conditions: enzyme inducers; B10 strain
# mice = system: mice; parameters: method as in Brown et al., 1979; conditions: ref Brown et al., 1979; cited from earlier work
# [6] = Body weight during pretreatment regime
# MC6B and EMT6 tumours = test: Tumour volume in pretreated mice; assay type: in vivo; conditions: usually not significant (P > 0.05)
# [7] = system: microsomal drug-metabolizing enzymes; test: Pentobarbitone sleeping-time after pretreatment (index of microsomal enzyme induction); assay type: in vivo, tumour-free BALB/c mice; conditions: 60 mg/kg pentobarbitone i.p. on Day 9 after pretreatment regime
# liver weight = test: Liver/body weight ratio after pretreatment; assay type: in vivo, tumour-free BALB/c mice; conditions: Day 9 after pretreatment regime
# [8] = Approximate acute LD50 of single doses of phenobarbitone and phenytoin; conditions: male, BALB/c, mouse, in vivo
# [9] = phenobarbitone or phenytoin pretreatment (Discussion)
smiles,measurement,setting,value
"COCC(O)Cn1ccnc1[N+](=O)[O-] (stereo not shown) [MIS, 1-(2-nitroimidazol-1-yl)-3-meth-oxypropan-22-ol]",change in body temperature after MIS,body temperature,marked decrease in temperature
same,t1/2 of MIS after bilateral kidney ligation,[1],prolonged after bilateral kidney ligation
same,MIS t1/2 and AUC with phenytoin therapy,[2],both reduced
same,peripheral neuropathy in man,man,dose-limiting toxicity
same,radiosensitizing efficiency of MIS and Ro 05-9963,hypoxic tumour cells,equally good radiosensitizers
same,LD50 at 7 days,in vivo; pretreatment phenobarbitone,1900 mg/kg
same,LD50 at 7 days,in vivo; pretreatment phenytoin,1780 mg/kg
same,LD50 at 7 days,in vivo; pretreatment saline (control),1540 mg/kg
same,reduction of apparent elimination half-life (t1/2) for MIS,"[3]; 1 g/kg MIS i.p., phenobarbitone or phenytoin pretreatment vs control, plasma, brain and tumour",20-67%
same,decrease of area under the curve (AUC) for MIS,"[3]; 1 g/kg MIS i.p., phenobarbitone or phenytoin pretreatment, plasma, brain and tumour",23-49%
same,concentrations in whole blood compared with plasma,[3],identical
same,Kp,"[3]; male, BALB/c, mouse, tumour and brain / plasma, ip, 1 g/kg",~0.5
same,effect of pretreatment on peak MIS concentration,"[3]; phenobarbitone and phenytoin pretreatment, plasma, brain or tumour",did not alter
same,decrease of blood (or plasma) MIS AUC,[3]; [9],25- 60%
same,shortening of apparent t1/2 for MIS elimination from blood or plasma,[3]; [9],35-60%
same,time of deaths after treatment,BALB/c male mice,3 to 4 days
"O=[N+]([O-])c1nccn1CC(O)CO (stereo not shown) [Ro 05-9963, 1-(2-nitroimidazol-1-yl)-2,3-propandiol]",lipophilicity compared with MIS,[4],considerably less lipophilic than MIS
same,increase of blood (or plasma) AUC for metabolite Ro 05-9963,[5],100%
same,LD50 compared with MIS,mice,higher LD50 than MIS
same,radiosensitizing efficiency of MIS and Ro 05-9963,hypoxic tumour cells,equally good radiosensitizers
same,concentrations in whole blood compared with plasma,[3],identical
same,increase of blood (or plasma) AUC for metabolite Ro 05-9963,"[3]; enzyme inducers, BALB/c mice",10-60%
CCC1(c2ccccc2)C(=O)NC(=O)NC1=O [phenobarbitone],initial weight loss during pretreatment regime,[6]; normally completely regained by Day 9,up to 10%
same,tumour volumes lower than the saline controls,MC6B and EMT6 tumours,up to 10%
same,"pentobarbitone sleeping-time, % of untreated control",[7],36%
same,"pentobarbitone sleeping-time, mean",[7],26 min
"O=C1NC(=O)C(c2ccccc2)(c2ccccc2)N1 [phenytoin, 5.5-diphenylhydantoin, sodium salt]","liver wt/body wt, % of untreated control",liver weight,124%
same,weight loss during pretreatment,"[6]; mouse, in vivo",little or no weight loss
same,tumour volumes lower than the saline controls,MC6B and EMT6 tumours,up to 10%
same,"pentobarbitone sleeping-time, % of untreated control",[7],30%
same,LD50,[8],200 to 240 mg/kg
